Test results published in ChEMBL document CHEMBL4680320, “Exploiting the antiproliferative potential of spiropyrazoline oxindoles in a human ovarian cancer cell line” (Bioorg Med Chem, 2021).
Active and inactive are the calls of the source. The calls are words filed in the database; no cut-off is given here.

Assays:
Fibroblast = assay: Cytotoxicity against human fibroblasts cells assessed as cell viability incubated for 48 hrs by MTS assay; assay type: cell-based
A2780 [1] = assay: Antiproliferative activity against human A2780 cells assessed as cell viability incubated for 48 hrs by MTS assay; assay type: functional, cell-based; settings: A2780, 48 h
MDA-MB-453 = assay: Antiproliferative activity against human MDA-MB 453 cells assessed as reduction in cell viability incubated for 48 hrs by MTS assay; assay type: functional, cell-based; settings: MDA-MB-453, 48 h
A2780 [2] = assay: Induction of apoptosis in human A2780 cells assessed as PARP level at 8.5 uM after 48 hrs by Western blot analysis; assay type: functional, cell-based
A2780 [3] = assay: Induction of mitochondrial membrane potential loss in human A2780 cells at 8.5 uM after 48 hrs by JC-1 staining based flow cytometry; assay type: functional, cell-based
A2780 [4] = assay: Induction of apoptosis in human A2780 cells assessed as apoptotic cells at 8.5 uM measured after 48 hrs by Hoechst staining based fluorescence microscopic analysis relative to control; assay type: functional
A2780 [5] = assay: Induction of apoptosis in human A2780 cells assessed as late apoptotic cells at 8.5 uM measured after 48 hrs by Annexin-V/propidium iodide staining-based flow cytometric analysis (reference value: 6%); assay type: functional
A2780 [6] = assay: Induction of apoptosis in human A2780 cells assessed as increased BAX expression at 8.5 uM after 48 hrs by Western blot analysis; assay type: functional, cell-based
A2780 [7] = assay: Induction of apoptosis in human A2780 cells assessed as decreased […] expression at 8.5 uM after 48 hrs by Western blot analysis; assay type: functional, cell-based
A2780 [8] = assay: Induction of intracellular reactive oxygen species production in human A2780 cells at 8.5 uM measured after 48 hrs by DCFH-DA probe based fluorescence microscopic analysis; assay type: functional, cell-based
Cancer cell lines = assay: Induction of apoptosis in human A2780 cells assessed as DNA damage after 48 hrs by fluorescence microscopic analysis; assay type: functional, cell-based
DNA [9] = assay: Induction of DNA damage of Escherichia coli pUC18 plasmid DNA at 8.5 uM after 24 hrs by agarose gel electrophoresis method; assay type: nucleic-acid assay
Calf thymus DNA [10] = assay: Binding affinity to calf thymus DNA after 24 hrs by UV-vis spectroscopy; settings: Bos taurus
A2780 [11] = assay: Induction of necrosis in human A2780 cells at 8.5 uM measured after 48 hrs by Annexin-V/propidium iodide staining-based flow cytometric analysis; assay type: functional, cell-based
A2780 [12] = assay: Induction of autophagy in human A2780 cells assessed as autophagosome accumulation at 8.5 uM after 48 hrs by Hoechst staining based fluorescence microscopic analysis relative to control; assay type: functional, cell-based
DNA [13] = assay: Induction of DNA damage in human A2780 cells assessed as DNA fragmentation at 8.5 uM after 48 hrs by agarose gel electrophoresis; assay type: cell-based
Calf thymus DNA [14] = assay: Binding affinity to calf thymus DNA at 100 uM by circular dichroism spectroscopy; settings: Bos taurus
A2780 [15] = assay: Effect on cell cycle distribution in human A2780 cells at 8.5 uM measured after 4 to 24 hrs by flow cytometry; assay type: functional, cell-based; settings: time 4-24 hrs

IC50 (A2780 [1]) [µM] | IC50 (MDA-MB-453) [µM] | SMILES | IC50 (Fibroblast) [µM] | further results
12.1 | 14.6 | CC(C)(C)C1=NN(c2ccccc2)[C@]2(C(=O)Nc3ccc(Br)cc32)[C@H]1c1ccccc1 | 15.7 | –
11.4 | 14.7 | CC(C)(C)C1=NN(c2ccccc2)[C@]2(C(=O)Nc3cc(Cl)c(F)cc32)[C@H]1c1cccc(Cl)c1 | 14.9 | –
8.5 | 11.3 | O=C1Nc2ccc(Br)cc2[C@]12[C@@H](c1ccccc1)C(c1ccccc1)=NN2c1ccccc1 | 55.2 | Activity (A2780 [2]): Active; Activity (A2780 [3]): Active; Activity (A2780 [4]): 31%; Activity (A2780 [5]): 13%; Activity (A2780 [6]): Active; Activity (A2780 [7]): Active; Activity (A2780 [8]): inactive; Activity (Cancer cell lines): Active; Activity (DNA [9]): inactive; Kb (Calf thymus DNA [10]): 7.09 10^6/M; Activity (A2780 [11]): inactive; Activity (A2780 [12]): Active; Activity (DNA [13]): inactive; Activity (Calf thymus DNA [14]): Active; Activity (A2780 [15]): inactive

The remaining lines, values behind:

SMILES | IC50 (A2780 [1]) [µM] | IC50 (MDA-MB-453) [µM] | IC50 (Fibroblast) [µM] | further results
COc1cccc2c1C(=O)c1c(O)c3c(c(O)c1C2=O)C[C@@](O)(C(=O)CO)C[C@@H]3O[C@H]1C[C@H](N)[C@H](O)[C@H](C)O1 [DOXORUBICIN] | 0.6 | – | – | –
CC(C)(C)C1=NN(c2ccc(Cl)cc2)[C@]2(C(=O)Nc3cc(Cl)c(F)cc32)[C@H]1c1cccc(Cl)c1F | 9.9 | 15 | 12.9 | –
CC(C)(C)C1=NN(c2ccccc2)[C@]2(C(=O)Nc3cc(Cl)c(F)cc32)[C@H]1c1cccc(Cl)c1F | 11.7 | 16.3 | 17.3 | –
